{"source": "patent US20100041089A1", "about": "“IMPROVED METHOD FOR DETECTING CHEMICAL […]” (priority 2006, published 2010)", "tested_on": "yeast genes (expressed mRNA)", "test": "DNA chip measurement of expressed mRNA of yeast genes after culture with a toxic chemical substance", "assay_type": "cell-based, Saccharomyces cerevisiae S288C", "conditions": "for The level of expressed mRNA in the presence of chemical substance/The level of expressed mRNA in the absence of chemical substance: cultured two hours with substance; for level of expressed mRNA in the presence of chemical substance / level in the absence of chemical substance: cultured two hours with the chemical substance", "method_in_brief": "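Expression is given as treated/untreated fluorescence ratio on a whole-genome yeast DNA chip, a ratio of two or more being significant. Log-phase S288C cultures in YPD at 25 °C received the chemical for 2 h at a dose that slows growth without killing. mRNA was reverse-transcribed with Cy3- or Cy5-dUTP.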", "data": [{"substance": "Na2As [(1)]", "values": [{"measurement": "The level of expressed mRNA in the presence of chemical substance/The level of expressed mRNA in the absence of chemical substance", "setting": "yeast gene YJL151C", "result": 1.0}, {"measurement": "The level of expressed mRNA in the presence of chemical substance/The level of expressed mRNA in the absence of chemical substance", "setting": "yeast gene YJL152W", "result": 0.9}, {"measurement": "The level of expressed mRNA in the presence of chemical substance/The level of expressed mRNA in the absence of chemical substance", "setting": "yeast gene YJL161W", "result": 1.7}, {"measurement": "The level of expressed mRNA in the presence of chemical substance/The level of expressed mRNA in the absence of chemical substance", "setting": "yeast gene YJL171C", "result": 2.3}, {"measurement": "The level of expressed mRNA in the presence of chemical substance/The level of expressed mRNA in the absence of chemical substance", "setting": "yeast gene YJR008W", "result": 1.6}, {"measurement": "level of expressed mRNA in the presence of chemical substance / level in the absence of chemical substance", "setting": "yeast gene YJR030C", "result": 0.7}, {"measurement": "The level of expressed mRNA in the presence of chemical substance/The level of expressed mRNA in the absence of chemical substance", "setting": "yeast gene YJR054W", "result": 0.8}, {"measurement": "level of expressed mRNA in the presence of chemical substance / level in the absence of chemical substance", "setting": "yeast gene YKL051W", "result": 1.0}, {"measurement": "The level of expressed mRNA in the presence of chemical substance/The level of expressed mRNA in the absence of chemical substance", "setting": "yeast gene YKL071W", "result": 8.3}, {"measurement": "The level of expressed mRNA in the presence of chemical substance/The level of expressed mRNA in the absence of chemical substance", "setting": "yeast gene YKL086W", "result": 1.0}, {"measurement": "level of expressed mRNA in the presence of chemical substance / level in the absence of chemical substance", "setting": "yeast gene YKL097C", "result": 0.9}, {"measurement": "level of expressed mRNA in the presence of chemical substance / level in the absence of chemical substance", "setting": "yeast gene YKL100C", "result": 0.7}, {"measurement": "The level of expressed mRNA in the presence of chemical substance/The level of expressed mRNA in the absence of chemical substance", "setting": "yeast gene YKL151C", "result": 1.2}, {"measurement": "The level of expressed mRNA in the presence of chemical substance/The level of expressed mRNA in the absence of chemical substance", "setting": "yeast gene YKL153W", "result": 1.1}, {"measurement": "The level of expressed mRNA in the presence of chemical substance/The level of expressed mRNA in the absence of chemical substance", "setting": "yeast gene YKL195W", "result": 0.8}, {"measurement": "level of expressed mRNA in the presence of chemical substance / level in the absence of chemical substance", "setting": "yeast gene YKR040C", "result": 1.2}, {"measurement": "The level of expressed mRNA in the presence of chemical substance/The level of expressed mRNA in the absence of chemical substance", "setting": "yeast gene YKR091W", "result": 1.5}, {"measurement": "The level of expressed mRNA in the presence of chemical substance/The level of expressed mRNA in the absence of chemical substance", "setting": "yeast gene YLR054C", "result": 2.0}, {"measurement": "The level of expressed mRNA in the presence of chemical substance/The level of expressed mRNA in the absence of chemical substance", "setting": "yeast gene YLR149C", "result": 1.4}, {"measurement": "The level of expressed mRNA in the presence of chemical substance/The level of expressed mRNA in the absence of chemical substance", "setting": "yeast gene YLR152C", "result": 0.7}, {"measurement": "The level of expressed mRNA in the presence of chemical substance/The level of expressed mRNA in the absence of chemical substance", "setting": "yeast gene YLR194C", "result": 2.1}, {"measurement": "level of expressed mRNA in the presence of chemical substance / level in the absence of chemical substance", "setting": "yeast gene YLR226W", "result": 1.0}, {"measurement": "The level of expressed mRNA in the presence of chemical substance/The level of expressed mRNA in the absence of chemical substance", "setting": "yeast gene YLR324W", "result": 0.7}, {"measurement": "level of expressed mRNA in the presence of chemical substance / level in the absence of chemical substance", "setting": "yeast gene YLR338W", "result": 1.1}, {"measurement": "The level of expressed mRNA in the presence of chemical substance/The level of expressed mRNA in the absence of chemical substance", "setting": "yeast gene YLR350W", "result": 1.2}, {"measurement": "The level of expressed mRNA in the presence of chemical substance/The level of expressed mRNA in the absence of chemical substance", "setting": "yeast gene YLR387C", "result": 0.9}, {"measurement": "level of expressed mRNA in the presence of chemical substance / level in the absence of chemical substance", "setting": "yeast gene YLR392C", "result": 1.1}, {"measurement": "level of expressed mRNA in the presence of chemical substance / level in the absence of chemical substance", "setting": "yeast gene YLR415C", "result": 1.1}, {"measurement": "level of expressed mRNA in the presence of chemical substance / level in the absence of chemical substance", "setting": "yeast gene YLR427W", "result": 0.6}, {"measurement": "The level of expressed mRNA in the presence of chemical substance/The level of expressed mRNA in the absence of chemical substance", "setting": "yeast gene YLR460C", "result": 2.1}, {"measurement": "level of expressed mRNA in the presence of chemical substance / level in the absence of chemical substance", "setting": "yeast gene YML013W", "result": 0.8}, {"measurement": "level of expressed mRNA in the presence of chemical substance / level in the absence of chemical substance", "setting": "yeast gene YML029W", "result": 0.6}, {"measurement": "level of expressed mRNA in the presence of chemical substance / level in the absence of chemical substance", "setting": "yeast gene YML041C", "result": 1.2}, {"measurement": "level of expressed mRNA in the presence of chemical substance / level in the absence of chemical substance", "setting": "yeast gene YML079W", "result": 1.0}, {"measurement": "The level of expressed mRNA in the presence of chemical substance/The level of expressed mRNA in the absence of chemical substance", "setting": "yeast gene YML117W", "result": 0.9}, {"measurement": "The level of expressed mRNA in the presence of chemical substance/The level of expressed mRNA in the absence of chemical substance", "setting": "yeast gene YMR009W", "result": 2.3}, {"measurement": "The level of expressed mRNA in the presence of chemical substance/The level of expressed mRNA in the absence of chemical substance", "setting": "yeast gene YMR067C", "result": 0.9}, {"measurement": "level of expressed mRNA in the presence of chemical substance / level in the absence of chemical substance", "setting": "yeast gene YMR068W", "result": 0.9}, {"measurement": "level of expressed mRNA in the presence of chemical substance / level in the absence of chemical substance", "setting": "yeast gene YMR071C", "result": 1.0}, {"measurement": "The level of expressed mRNA in the presence of chemical substance/The level of expressed mRNA in the absence of chemical substance", "setting": "yeast gene YMR090W", "result": 6.9}, {"measurement": "The level of expressed mRNA in the presence of chemical substance/The level of expressed mRNA in the absence of chemical substance", "setting": "yeast gene YMR095C", "result": 1.1}, {"measurement": "The level of expressed mRNA in the presence of chemical substance/The level of expressed mRNA in the absence of chemical substance", "setting": "yeast gene YMR097C", "result": 1.5}, {"measurement": "The level of expressed mRNA in the presence of chemical substance/The level of expressed mRNA in the absence of chemical substance", "setting": "yeast gene YMR102C", "result": 1.0}, {"measurement": "The level of expressed mRNA in the presence of chemical substance/The level of expressed mRNA in the absence of chemical substance", "setting": "yeast gene YMR107W", "result": 5.0}, {"measurement": "level of expressed mRNA in the presence of chemical substance / level in the absence of chemical substance", "setting": "yeast gene YMR160W", "result": 0.8}, {"measurement": "The level of expressed mRNA in the presence of chemical substance/The level of expressed mRNA in the absence of chemical substance", "setting": "yeast gene YMR180C", "result": 1.2}, {"measurement": "The level of expressed mRNA in the presence of chemical substance/The level of expressed mRNA in the absence of chemical substance", "setting": "yeast gene YMR184W", "result": 1.3}, {"measurement": "The level of expressed mRNA in the presence of chemical substance/The level of expressed mRNA in the absence of chemical substance", "setting": "yeast gene YMR191W", "result": 1.3}, {"measurement": "The level of expressed mRNA in the presence of chemical substance/The level of expressed mRNA in the absence of chemical substance", "setting": "yeast gene YMR295C", "result": 1.7}, {"measurement": "The level of expressed mRNA in the presence of chemical substance/The level of expressed mRNA in the absence of chemical substance", "setting": "yeast gene YMR316W", "result": 3.2}, {"measurement": "level of expressed mRNA in the presence of chemical substance / level in the absence of chemical substance", "setting": "yeast gene YNL026W", "result": 0.7}, {"measurement": "The level of expressed mRNA in the presence of chemical substance/The level of expressed mRNA in the absence of chemical substance", "setting": "yeast gene YNL044W", "result": 1.3}]}]}
